Laboratory results published in US8728980B2, “Peptide microarray and method of use” (The Regents of the University of California, priority 2011, dated 2014).

What was measured:
Polycomb = target: T1, Polycomb (Drosophila melanogaster, UniProt P26017); details: from reference 2; read-out: Experimental dissociation constant; cited from earlier work
T1 sequence (P26017 1-390): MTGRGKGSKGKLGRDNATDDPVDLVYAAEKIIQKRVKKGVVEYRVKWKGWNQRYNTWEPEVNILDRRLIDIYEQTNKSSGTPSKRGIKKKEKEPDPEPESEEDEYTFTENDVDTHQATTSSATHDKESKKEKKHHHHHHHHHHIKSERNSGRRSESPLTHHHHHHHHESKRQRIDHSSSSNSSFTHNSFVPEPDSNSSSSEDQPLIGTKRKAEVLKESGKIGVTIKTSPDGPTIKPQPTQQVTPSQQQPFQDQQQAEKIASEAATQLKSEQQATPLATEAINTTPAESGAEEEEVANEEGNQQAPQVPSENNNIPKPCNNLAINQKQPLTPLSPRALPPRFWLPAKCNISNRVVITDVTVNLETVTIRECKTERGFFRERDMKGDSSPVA

[1] = target: T2, Polycomb protein chromodomain (Drosophila melanogaster, UniProt P26017); test: Peptide microarray binding of GST-tagged Polycomb chromodomain; set-up: dose or concentration left out as unconfirmed; details: Binder if at least two of three spots pass p-value cutoff 0.001 from background
T2 construct: The chromodomain (a.a. 1-90) of Polycomb protein was expressed as GST-tagged fusion protein; made in house
T2 sequence (P26017 1-90): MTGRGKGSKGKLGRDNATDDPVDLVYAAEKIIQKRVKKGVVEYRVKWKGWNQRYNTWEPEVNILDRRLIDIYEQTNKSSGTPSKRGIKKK
Description: There are a total of 46 histone peptide sequences (9 a.a. long) with a single lysine-trimethylation site which are conserved between the human and fruit fly H2, H3 and H4 proteins (Table II). These were screened for Polycomb protein chromodomain binding by peptide microarray. Each peptide sequence was screened as triplets, and the fluorescence intensity was quantified with background subtraction individually for each spot from the microarray images by ImageJ^9 and the whole data set was fit to a mixed Gaussian distribution model (FIG. 8, Table III).
Twelve out of the 46 sequences were identified as positive binders under these criteria. Ten of these microarray-identified binders also yielded high mutation matrix score in an independent prediction (Table IV).
The chromodomain (a.a. 1-90) of Polycomb protein was expressed as GST-tagged fusion protein and purified as described in [65]. The purity of the protein was examined by SDS-PAGE electrophoresis followed by both Coomassie staining and western blot using an Anti-GST-HRP conjugate (Santa Cruz Biotechnology). The concentration of purified protein was determined by BCA assay (Amresco). A total of 46 trimethylated histone peptides were synthesized by Sigma Aldrich (desalted, mass spectrometry checked). The peptides were then printed as triplets onto glass slides (ArrayIt), together with a Cy3 marker and an anti-GST (mouse monoclonal) antibody (Thermo) as references.
The peptide microarray was rinsed with TBST buffer (25 mM Tris, 125 mM NaCl, 0.05% Tween-20, pH 8) followed by blocking with 5% non-fat milk in TBST (room temperature 1 hour or 4° C. overnight). The slide was then incubated at 4° C. with Polycomb-GST fusion protein at a final concentration of […] in 5% non-fat milk/TBST for 6 hours. After washing three times for 10 minutes each with TBST, the slide was incubated with an anti-GST mouse monoclonal IgG antibody (Thermo) at a final concentration of 1 μg/mL in 5% non-fat milk/TBST and shaken gently for 1 hour at room temperature. A secondary anti-mouse IgG Dylight-488 conjugated antibody (Thermo) was added to a final concentration of 0.1 μg/mL after three more cycles of 10 minutes washing with TBST. The slide was shaken for 1 hr at room temperature and washed three times with TBST.
The dried microarray slides were scanned using a Hamamatsu NanoZoomer 2.0HT Slide Scanning System (Neuroscience Light Microscopy Facility, UCSD). Data quantification were processed using the microarray processing software ImageJ^9, where the fluorescent intensity of a microarray spot was defined as its own intensity minus the background intensity around it on the scanned image.

Abl1 SH3 domain = Abl1 SH3 domain (Homo sapiens, UniProt P00519); test: Peptide microarray binding of GST-Abl SH3 fusion protein (Cy3 fluorescence); details: peptides printed at 1 mg/ml in triplicates, GST-Abl SH3 5 μM
Sequence of Abl1 SH3 domain (P00519 61-121 limits assumed): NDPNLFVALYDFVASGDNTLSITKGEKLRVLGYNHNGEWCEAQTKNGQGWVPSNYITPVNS
Description: The GST-tagged Abl SH3 domain fusion protein was purified as previously described (12). Protein concentration was determined using the Bradford Assay (Bio-Rad). The purity of the fusion protein was checked by electrophoresis on SDS-PAGE gel and coomassie blue staining. The fusion protein was also subjected to electrophoresis on SDS-PAGE gel, followed by Western blot using a horseradish peroxidase-conjugated anti-GST antibody (Santa Cruz Biotechnology) and the SuperSignal West chemiluminescent substrate (Pierce).
All peptides were synthesized by Sigma-Aldrich. The peptides were printed onto glass slides in triplicates by ArrayIt Corporation. […]
The peptide microarray was processed by the InnoScan 710 laser scanner (ArrayIt Corporation). Cy-3 fluorescence was detected using the 532 nm laser at 3 um resolution. The resulted microarray image was analyzed by the microarray image process software Mapix2.8.2 (ArrayIt Corporation). The fluorescent intensity of a microarray spot was defined as its own intensity minus the background intensity around it, as determined from the scanned image.
To print peptide microarrays, method of immobilizing the peptides on the glass surface, as well as the amount of peptide printed, needed to decide. […] Binding of GST-Abl SH3 to peptides generated a Cy3 fluorescent signal that was recorded on a laser scanner. […]

Sequence | Kd (Polycomb) | Array Verification [1] | Average fluorescence intensity (high printing concentration) (Abl1 SH3 domain)
LATKAARKS [template histone H3 peptide L20 to S28 with trimethylated Lys27, reference compound] | 5 ± 1 µM | Binder | 
PPDPPPPPLP [10-residue peptide of SHIP2_HUMAN 1050-1059] |  |  | 58833
